From ChEMBL document CHEMBL1201861, “Genomics of Drug Sensitity in Cancer screening data, Wellcome Trust Sanger Institute” come the findings set out here.

One assay has as its system ECC12. The assay is described as follows: cells. The conditions noted are these: Homo sapiens. It counts as functional, cell-based.
The test system of a further assay is RH-18. The assay is described as follows: cells. The format is functional, cell-based, Homo sapiens. The settings on record: Homo sapiens, Rh18.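 Note: growth inhibition of human RH-18 cells, read out with a cell viability assay.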
Another assay concerns BALL-1. The assay is described as follows: cells. The conditions noted are these: Homo sapiens, BALL-1. The format is functional, cell-based, Homo sapiens.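 Note: growth inhibition of BALL-1 cells, read out with a cell viability assay.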
The next assay relates to TGBC11TKB. The assay is described as follows: cells. It counts as functional, cell-based, Homo sapiens. The settings on record: Homo sapiens, TGBC11TKB.
A further assay deals with CHP-134. The assay is described as follows: SANGER: Inhibition of human CHP-134 cell growth in a cell viability assay. The format is functional, cell-based.
For a further assay, the system named is NCI-H1666. The experiment in a line: cells. The format is functional, cell-based, Homo sapiens. The settings on record: Homo sapiens, NCI-H1666.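 Note: growth inhibition of the cell line, read out with a cell viability assay.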
In another assay the test system is LU-135. The experiment in a line: cells. The format is functional, cell-based, Homo sapiens. The conditions noted are these: Homo sapiens, LU-135.
For a further assay, the system named is SW900. The experiment in a line: cells. It counts as functional, cell-based, Homo sapiens. The settings on record: Homo sapiens, SW900.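 Note: IC50 is the concentration that inhibits SW900 cell growth, measured by a cell viability assay.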
In the next assay the test system is MES-SA. The assay is described as follows: cells. The settings on record: Homo sapiens, MES-SA. The format is functional, cell-based, Homo sapiens.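 Note: growth inhibition of human MES-SA cells, read out with a cell viability assay.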
The test system of the next assay is RT-4. The experiment in a line: SANGER: Inhibition of human RT4 cell growth in a cell viability assay. It counts as functional, cell-based. The settings on record: Homo sapiens, RT-4.
A further assay concerns NCI-H1975. The assay is described as follows: cells. It counts as functional, cell-based, Homo sapiens. The conditions noted are these: Homo sapiens, NCI-H1975.
In a further assay the test system is SK-MG-1. The experiment in a line: SANGER: Inhibition of human SK-MG-1 cell growth in a cell viability assay. The format is functional, cell-based.
The subject of the next assay is SK-MEL-5. The experiment in a line: SANGER: Inhibition of human SK-MEL-5 cell growth in a cell viability assay. The format is functional, cell-based.
A further assay has as its system C-4-II. The assay is described as follows: SANGER: Inhibition of human C-4-II cell growth in a cell viability assay. The format is functional, cell-based. The conditions noted are these: Homo sapiens, C-4-II.
The next assay concerns NCI-H1618. The assay is described as follows: cells. It counts as functional, cell-based, Homo sapiens. The settings on record: Homo sapiens, NCI-H1618.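 Note: growth inhibition of human NCI-H1618 cells, measured by a cell viability assay.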
The next assay deals with COLO 205. The assay is described as follows: cells. The format is functional, cell-based, Homo sapiens. The settings on record: Homo sapiens, COLO 205.
Another assay deals with Caov-4. The assay is described as follows: cells. The format is functional, cell-based. The settings on record: Homo sapiens.
For a further assay, the system named is HCC1143. The experiment in a line: cells. The conditions noted are these: Homo sapiens, HCC1143. The format is functional, cell-based, Homo sapiens.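 Note: growth inhibition of human HCC1143 cells, read out with a cell viability assay.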
The next assay relates to NCI-H1734. The experiment in a line: cells. It counts as functional, cell-based, Homo sapiens. The settings on record: Homo sapiens, NCI-H1734.
The subject of a further assay is SNU-475. The assay is described as follows: cells. The conditions noted are these: Homo sapiens, SNU-475. It counts as functional, cell-based, Homo sapiens.
A further assay deals with Caov-3 cell line. The assay is described as follows: cells. The settings on record: Homo sapiens, Caov-3. The format is functional, cell-based, Homo sapiens.
A further assay deals with EFE-184. The assay is described as follows: cells. The settings on record: Homo sapiens, EFE-184. It counts as functional, cell-based, Homo sapiens.
A further assay relates to SNG-M. The experiment in a line: cells. The format is functional, cell-based, Homo sapiens. The settings on record: Homo sapiens, SNG-M.
For a further assay, the system named is NCI-H838. The assay is described as follows: cells. The format is functional, cell-based, Homo sapiens. The settings on record: Homo sapiens, NCI-H838.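 Note: growth inhibition of human NCI-H838 cells, read out by a cell viability assay.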
Another assay deals with SK-CO-1. The experiment in a line: cells. It counts as functional, cell-based, Homo sapiens. The conditions noted are these: Homo sapiens, SK-CO-1.
The next assay concerns TC-YIK. The assay is described as follows: SANGER: Inhibition of human TC-YIK cell growth in a cell viability assay. The format is functional, cell-based.
The next assay concerns NCI-H378. The assay is described as follows: SANGER: Inhibition of human NCI-H378 cell growth in a cell viability assay. It counts as functional, cell-based.
Another assay deals with CP67-MEL. The experiment in a line: SANGER: Inhibition of human CP67-MEL cell growth in a cell viability assay. The format is functional, cell-based.
For another assay, the system named is KP-N-RT-BM-1. The experiment in a line: SANGER: Inhibition of human KP-N-RT-BM-1 cell growth in a cell viability assay. It counts as functional, cell-based.

As usually defined, the IC50 is the concentration that inhibits the measured activity by half. Higher therefore signals lower potency.

Structures are written as SMILES.

Description for BALL-1: SANGER: Inhibition of human BALL-1 cell growth in a cell viability assay.
Description for COLO 205: SANGER: Inhibition of human COLO-205 cell growth in a cell viability assay.
Description for Caov-3 cell line: SANGER: Inhibition of human Caov-3 cell growth in a cell viability assay.
Description for Caov-4: SANGER: Inhibition of human Caov-4 cell growth in a cell viability assay.
Description for ECC12: SANGER: Inhibition of human ECC12 cell growth in a cell viability assay.
Description for EFE-184: SANGER: Inhibition of human EFE-184 cell growth in a cell viability assay.
Description for HCC1143: SANGER: Inhibition of human HCC1143 cell growth in a cell viability assay.
Description for LU-135: SANGER: Inhibition of human LU-135 cell growth in a cell viability assay.
Description for MES-SA: SANGER: Inhibition of human MES-SA cell growth in a cell viability assay.
Description for NCI-H1618: SANGER: Inhibition of human NCI-H1618 cell growth in a cell viability assay.
Description for NCI-H1666: SANGER: Inhibition of human NCI-H1666 cell growth in a cell viability assay.
Description for NCI-H1734: SANGER: Inhibition of human NCI-H1734 cell growth in a cell viability assay.
Description for NCI-H1975: SANGER: Inhibition of human NCI-H1975 cell growth in a cell viability assay.
Description for NCI-H838: SANGER: Inhibition of human NCI-H838 cell growth in a cell viability assay.
Description for RH-18: SANGER: Inhibition of human RH-18 cell growth in a cell viability assay.
Description for SK-CO-1: SANGER: Inhibition of human SK-CO-1 cell growth in a cell viability assay.
Description for SNG-M: SANGER: Inhibition of human SNG-M cell growth in a cell viability assay.
Description for SNU-475: SANGER: Inhibition of human SNU-475 cell growth in a cell viability assay.
Description for SW900: SANGER: Inhibition of human SW900 cell growth in a cell viability assay.
Description for TGBC11TKB: SANGER: Inhibition of human TGBC11TKB cell growth in a cell viability assay.

In the assay with ECC12, `COc1cc(N2CCN(C)CC2)ccc1Nc1ncc2c(n1)N(C)c1ccccc1C(=O)N2C` displayed an IC50 of over 8000 nM.

Turning to `COc1cc2c(Nc3ccc(NC(=O)c4ccccc4)cc3)ncnc2cc1OCCCN1CCOCC1`, the IC50 in the assay on RH-18 is over 4000 nM; in the assay with BALL-1, over 4000 nM; in the assay on TGBC11TKB, over 4000 nM; with CHP-134, 1230 nM; with NCI-H1666, over 4000 nM; in the assay on LU-135, 2660 nM. In the assay with SW900, the IC50 was over 4000 nM.

Take `CC(C)c1ccccc1Cc1cc(C(=O)Nc2ccc(S(=O)(=O)c3ccccc3C(C)(C)C)cc2)c(O)c(O)c1O`: the IC50 was 1070 nM with RH-18; 1110 nM in the assay with MES-SA; 10600 nM in the assay on RT-4; 1380 nM in the assay on NCI-H1975; 2580 nM in the assay on SK-MG-1; 378 nM with NCI-H1666. In addition, the IC50 with SW900 came out at 2770 nM; in the assay on SK-MEL-5, 69.2 nM.

For the molecule `N#Cc1c(O)c2c(-c3ccc(-c4ccccc4O)cc3)csc2[nH]c1=O`, the IC50 in the assay with C-4-II, with NCI-H1618, in the assay on COLO 205, in the assay with Caov-4, with HCC1143 and in the assay on MES-SA was over 1020 nM in each case. For the same molecule, the IC50 in the assay with RT-4, in the assay on NCI-H1734, in the assay with SNU-475, in the assay with Caov-3 cell line, with ECC12 and in the assay on EFE-184 was over 1020 nM throughout. Moreover, the IC50 with SNG-M, in the assay on NCI-H838 and in the assay on SK-CO-1 was over 1020 nM in each case.

On to `CC(C)CCN1c2nc(Nc3cc(F)c(O)c(F)c3)ncc2N(C)C(=O)C1C` (stereo not drawn), for which the IC50 with RH-18 is over 5000 nM; with BALL-1 it was over 5000 nM; with TGBC11TKB, over 5000 nM; with CHP-134 it was 3490 nM; in the assay with NCI-H1666, over 5000 nM; with LU-135 it was over 5000 nM. This molecule registered a 50% inhibitory concentration (IC50) with SW900 of over 5000 nM.

As for `C#Cc1cccc(Nc2ncnc3cc(OCCOC)c(OCCOC)cc23)c1` [ERLOTINIB], the IC50 in the assay on ECC12 turned out to be 80.5 nM.

`COc1cc2ncn(-c3cc(OCc4ccccc4S(C)(=O)=O)c(C#N)s3)c2cc1OC` [GSK-319347A]: the IC50 with TC-YIK, in the assay with ECC12 and in the assay on NCI-H378 was over 5000 nM throughout.

Take `CC1(C)CNc2cc(NC(=O)c3cccnc3NCc3ccncc3)ccc21` [MOTESANIB]: the IC50 with RH-18, in the assay on BALL-1, in the assay on TGBC11TKB, in the assay with CHP-134, in the assay on NCI-H1666 and with LU-135 was over 2000 nM throughout. Also, in the assay on SW900, the IC50 was over 2000 nM.

For the molecule `CC(=O)O[C@H]1C(=O)[C@@]2(C)[C@H]([C@H](OC(=O)c3ccccc3)[C@]3(O)C[C@H](OC(=O)[C@H](O)[C@@H](NC(=O)c4ccccc4)c4ccccc4)C(C)=C1C3(C)C)[C@]1(OC(C)=O)CO[C@@H]1C[C@@H]2O` [PACLITAXEL], the IC50 in the assay with CP67-MEL was 68.1 nM; in the assay with KP-N-RT-BM-1, over 102 nM.

Regarding `CCN(CC)CCCCNc1ncc2cc(-c3cc(OC)cc(OC)c3)c(NC(=O)NC(C)(C)C)nc2n1` [PD-173074], the IC50 in the assay on RH-18, with BALL-1, with TGBC11TKB, in the assay with CHP-134, in the assay with NCI-H1666 and with LU-135 was over 2000 nM each time. The molecule also gave an IC50 in the assay on SW900 of over 2000 nM.

In the case of `N[C@@H](CSC(c1ccccc1)(c1ccccc1)c1ccccc1)C(=O)O` [S-TRITYL-L-CYSTEINE], the IC50 is 2390 nM in the assay with CP67-MEL and over 5120 nM with KP-N-RT-BM-1.

Consider `CC[C@H](CO)Nc1nc(NCc2ccccc2)c2ncn(C(C)C)c2n1` [SELICICLIB], for which, in the assay on ECC12, the IC50 is over 16000 nM.

For the molecule `Cn1cnc2c(F)c(Nc3ccc(Br)cc3Cl)c(C(=O)NOCCO)cc21` [SELUMETINIB], the IC50 in the assay on RH-18, with BALL-1, in the assay on TGBC11TKB, with CHP-134 and in the assay with LU-135 was over 4000 nM throughout.

For `CCN(CC)CCNC(=O)c1c(C)[nH]c(/C=C2\C(=O)Nc3ccc(F)cc32)c1C` [SUNITINIB], the IC50 with CP67-MEL and in the assay with KP-N-RT-BM-1 was over 8000 nM each time.
